9 molecules from ChEMBL document CHEMBL1126039, “Synthesis and antiviral activity of 1-cyclobutyl-5-(2-bromovinyl)uracil nucleoside analogues and related compounds” (J Med Chem, 1992) can be followed below.

In data set [1] the test system is WI-38. In words: Anti viral activity against HSV-2(186) in WI-38 cell monolayers. It is filed as functional. The following applies: Homo sapiens, read-out: ID50 (the source's name).
In data set [2] the test system is WI-38. In words: Growth inhibitory activity against WI-38 cells. Particulars: Homo sapiens, read-out: ID50 (the source's name). The class given is functional.
In data set [3] the test system is WI-38. The experiment in a line: Anti viral activity against HCMV(AD169) in WI-38 cell monolayers. It is filed as functional. The following applies: Homo sapiens, read-out: ID50 (the source's name).
Data set [4] in a line: Therapeutic index of compound maesured as ratio of ID50 for WI-38 cell growth inhibition / ID50 anti-VZV (strain Ellen). The class given is cell-based. The following applies: human, WI-38 cells; read-out: Therapeutic index.
Data set [5] has as its system WI-38. In words: Anti viral activity against VZV(pplla strain) in WI-38 cell monolayers. It is filed as functional. Particulars: Homo sapiens, read-out: ID50 (the source's name).
The test system of data set [6] is WI-38. The experiment in a line: Anti viral activity against HSV-1(Schooler) in WI-38 cell monolayers. The class given is functional. The following applies: Homo sapiens, read-out: ID50 (the source's name).
For data set [7], the system named is WI-38. In words: Anti viral activity against VZV(9021 strain) in WI-38 cell monolayers. It is filed as functional. Particulars: Homo sapiens, read-out: ID50 (the source's name).
Data set [8] relates to WI-38. In words: Anti viral activity against VZV(Ellen strain) in WI-38 cell monolayers. The class given is functional. Particulars: Homo sapiens, read-out: ID50 (the source's name).
Data set [9] relates to WI-38. The experiment in a line: Anti viral activity against VZV(Ito strain) in WI-38 cell monolayers. It is filed as functional. Particulars: Homo sapiens, read-out: ID50 (the source's name).
Data set [10] has as its system WI-38. The experiment in a line: Anti viral activity against VZV (Kanno-Kohmura(TK-) strain) in WI-38 cell monolayers. The following applies: Homo sapiens, read-out: ID50 (the source's name). It is filed as functional.
Data set [11] addresses T1, Thymidine kinase, cytosolic (Homo sapiens) (UniProt P04183).
T1 sequence (whole entry): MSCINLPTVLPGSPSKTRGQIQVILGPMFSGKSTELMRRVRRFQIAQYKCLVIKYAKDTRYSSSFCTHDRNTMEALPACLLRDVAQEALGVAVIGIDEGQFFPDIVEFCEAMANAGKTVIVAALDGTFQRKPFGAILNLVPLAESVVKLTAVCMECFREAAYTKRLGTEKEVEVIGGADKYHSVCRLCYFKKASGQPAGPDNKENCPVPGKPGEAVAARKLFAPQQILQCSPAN
Particulars: Human alphaherpesvirus 3.

For data set [12], the target named is T1, Thymidine kinase, cytosolic (Homo sapiens). Particulars: Human alphaherpesvirus 3. The source holds these as a separate data set.
In data set [13] the test system is WI-38. In words: Anti viral activity against VZV(Oka strain) in WI-38 cell monolayers. The class given is functional. The following applies: Homo sapiens, read-out: ID50 (the source's name).
Data set [14] relates to WI-38. In words: Anti viral activity against VZV in WI-38 cell monolayers. The class given is functional. The following applies: Homo sapiens, read-out: ID50 (the source's name).
Data set [15] deals with WI-38. In words: Anti viral activity against HSV-2 in WI-38 cell monolayers. The class given is functional. The following applies: Homo sapiens, read-out: ID50 (the source's name).
Data set [16] relates to WI-38. The experiment in a line: Anti viral activity against HSV-1 in WI-38 cell monolayers. The class given is functional. Particulars: Homo sapiens, read-out: ID50 (the source's name).
Data set [17] concerns WI-38. The experiment in a line: Anti viral activity against HCMV in WI-38 cell monolayers. The class given is functional. The following applies: Homo sapiens, read-out: ID50 (the source's name).
For data set [18], the system named is WI-38. In words: Anti viral activity against VZV(40a2 (TK-) strain) in WI-38 cell monolayers. It is filed as functional. The following applies: Homo sapiens, read-out: ID50 (the source's name).

As to `O=c1[nH]c(=O)n([C@@H]2C[C@H](CO)C2CO)cc1/C=C/I` (stereo partly specified), the IC50 in the data set with WI-38 [1] was greater than 260000 nM; with WI-38 [2] it was greater than 800000 nM; in the data set with WI-38 [3] it was 260000 nM; in the data set on WI-38 [5], 260 nM; in the data set with WI-38 [6], 13000 nM; in the data set on WI-38 [7], 130 nM. Besides, the IC50 is 50 nM with WI-38 [8], 100 nM in the data set on WI-38 [9] and greater than 260000 nM in the data set on WI-38 [10]. For the same molecule, the selectivity ratio in data set [4] was greater than 2.7. In addition, in data set [11], the Kinase activity (pM min-1*ml-1) was determined as 736.
As for `O=c1[nH]c(=O)n([C@@H]2O[C@H](CO)[C@@H](O)[C@@H]2O)cc1/C=C/Br` [SORIVUDINE], the IC50 in the data set with WI-38 [1] is 120000 nM; in the data set on WI-38 [2], greater than 75000 nM; in the data set on WI-38 [3], greater than 290000 nM; in the data set with WI-38 [5], 3 nM; with WI-38 [6], 140 nM; in the data set with WI-38 [7] it was 3 nM. Further, the IC50 in the data set on WI-38 [8] was 3 nM; with WI-38 [9], 7 nM; in the data set on WI-38 [10] it was greater than 72000 nM; in the data set with WI-38 [13], 3 nM. Moreover, the Kinase activity (pM min-1*ml-1) in [12] worked out at 95; in data set [11], 140. Also, the selectivity ratio in [4] was greater than 7.5.
Consider `Cc1cn([C@H]2C[C@H](O)[C@@H](CO)O2)c(=O)[nH]c1=O`, for which the values for the Kinase activity (pM min-1*ml-1) in data set [12] and in [11] were 174 and 585, respectively.
Take `Nc1nc2c(ncn2COCCO)c(=O)[nH]1` [ACYCLOVIR]: the IC50 with WI-38 [1] was 800 nM; in the data set with WI-38 [2] it was greater than 750000 nM; in the data set on WI-38 [3], 40000 nM; in the data set with WI-38 [6], 200 nM. The molecule further had a Kinase activity (pM min-1*ml-1) in [11] of 13.
With `O=c1[nH]c(=O)n([C@@H]2C[C@H](CO)C2O)cc1I` (stereo partly specified), the IC50 with WI-38 [14], with WI-38 [15], in the data set on WI-38 [16] and in the data set with WI-38 [17] was greater than 300000 nM in each case.
On to `O=c1[nH]c(=O)n(C2CC(CO)C2CO)cc1/C=C/Br` (racemic), for which the IC50 in the data set with WI-38 [1] is greater than 300000 nM; in the data set on WI-38 [2], greater than 750000 nM; with WI-38 [3], greater than 300000 nM; with WI-38 [18], greater than 300000 nM; with WI-38 [5] it was 200 nM; in the data set on WI-38 [6] it was greater than 6000 nM. In addition, the IC50 is 600 nM in the data set with WI-38 [7]; 150 nM in the data set on WI-38 [8]; 150 nM in the data set on WI-38 [9]; greater than 300000 nM in the data set with WI-38 [10]; 600 nM in the data set on WI-38 [13]. In addition, in data set [4], the selectivity ratio is greater than 2.5. The molecule also gave a Kinase activity (pM min-1*ml-1) in [11] of 1280.
Take `O=c1[nH]c(=O)n([C@@H]2C[C@H](CO)C2CO)cc1I` (stereo partly specified): the results for the IC50 in the data set on WI-38 [16] and in the data set with WI-38 [8] were 14000 nM and 28000 nM, respectively.
As for `O=c1[nH]c(=O)n([C@@H]2C[C@H](CO)C2CO)cc1/C=C/Cl` (stereo partly specified), the IC50 in the data set with WI-38 [1] is greater than 280000 nM; in the data set with WI-38 [2], greater than 400000 nM; in the data set with WI-38 [3] it was 350000 nM; in the data set on WI-38 [6], 3500 nM; in the data set on WI-38 [7], 1100 nM; in the data set with WI-38 [8], 400 nM. In addition, the IC50 is 50 nM with WI-38 [9] and greater than 220000 nM in the data set on WI-38 [10]. In addition, the selectivity ratio in data set [4] was greater than 2. Also, the Kinase activity (pM min-1*ml-1) in data set [11] stood at 333.
In the case of `O=c1[nH]c(=O)n([C@@H]2C[C@H](CO)C2CO)cc1/C=C/Br` (stereo partly specified), the IC50 with WI-38 [1] is greater than 300000 nM; in the data set with WI-38 [2] it was greater than 750000 nM; with WI-38 [3], greater than 300000 nM; with WI-38 [5], 200 nM; with WI-38 [6], 3000 nM; with WI-38 [7], 150 nM. The IC50 in the data set with WI-38 [8] came out at 200 nM; with WI-38 [9], 15 nM; in the data set on WI-38 [10], 150000 nM. The selectivity ratio in data set [4] is greater than 1.3. Moreover, the Kinase activity (pM min-1*ml-1) in data set [11] amounted to 63.
